Measurements as given in patent US20240132431A1, “METHOD FOR ALKYLATING ACIDIC FUNCTIONAL GROUP” (Chugai Seiyaku Kabushiki Kaisha, priority 2021, published 2024).

Target: T1, Bcl-2 protein (Recombinant Human Bcl-2 Protein) (Homo sapiens, UniProt P10415)
T1 construct: purchased Novus NBP2-34889
Experiment: Binding evaluation of mixture library compounds to Bcl-2 using AS-MS (affinity selection mass spectrometry)
Conditions: AS-MS on the mixture of 1200 library compounds, ASMS Ratio(%)=(A−C)/B×100; for ASMS ratio (%) n = 1: replicate n = 1; for ASMS ratio (%) n = 2: replicate n = 2
How it was run: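 ASMS Ratio (%) was calculated as (A−C)/B×100, where A is the protein sample after SEC, B the protein-free sample without SEC and C the protein-free sample after SEC. Each compound was at […] in a 1200-member pool with 20 μM Bcl-2, incubated 1 h at 23° C.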

T1 sequence (P10415 whole entry): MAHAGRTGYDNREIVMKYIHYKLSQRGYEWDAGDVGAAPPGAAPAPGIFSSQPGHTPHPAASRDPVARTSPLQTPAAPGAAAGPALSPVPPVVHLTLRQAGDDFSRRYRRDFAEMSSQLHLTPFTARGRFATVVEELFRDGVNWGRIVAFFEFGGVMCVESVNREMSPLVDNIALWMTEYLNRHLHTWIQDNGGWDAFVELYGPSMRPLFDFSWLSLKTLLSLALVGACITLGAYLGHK

Compound: CCOc1cncc(-c2ccc(C(=O)N3CCN(c4ccc(C(=O)N(C)CC56CC7CC(CC(C7)C5)C6)cc4)CC3)c3ccccc23)c1 [B3A036-01, N-(1-Adamantylmethyl)-4-[4-[4-(5-ethoxypyridin-3-yl)naphthalene-1-carbonyl]piperazin-1-yl]-N-methylbenzamide]
- ASMS ratio (%) n = 1: 2.8%
- ASMS ratio (%) n = 2: −3.3%

Compound: CCOc1cccc(-c2cc(C(=O)N3CCN(c4ccc(C(=O)N(C)CC56CC7CC(CC(C7)C5)C6)cc4)CC3)cc(C(C)(C)C)c2)c1 [B3A037-01, N-(1-Adamantylmethyl)-4-[4-[3-tert-butyl-5-(3-ethoxyphenyl)benzoyl]piperazin-1-yl]-N-methylbenzamide]
- ASMS ratio (%) n = 1: 0.0%
- ASMS ratio (%) n = 2: 0.0%

Compound: CCOc1cncc(-c2cc(C(=O)N3CCN(c4ccc(C(=O)N(C)CC56CC7CC(CC(C7)C5)C6)cc4)CC3)cc(C(C)(C)C)c2)c1 [B3A038-01, N-(1-Adamantylmethyl)-4-[4-[3-tert-butyl-5-(5-ethoxypyridin-3-yl)benzoyl]piperazin-1-yl]-N-methylbenzamide]
- ASMS ratio (%) n = 1: 2.5%
- ASMS ratio (%) n = 2: −2.9%

Compound: CCOc1cccc(-c2cc(C(=O)N3CCN(c4ccc(C(=O)N(C)CC56CC7CC(CC(C7)C5)C6)cc4)CC3)cc(C(F)(F)F)c2)c1 [B3A039-01, N-(1-Adamantylmethyl)-4-[4-[3-(3-ethoxyphenyl)-5-(trifluoromethyl)benzoyl]piperazin-1-yl]-N-methylbenzamide]
- ASMS ratio (%) n = 1: 3.8%
- ASMS ratio (%) n = 2: 0.0%

Compound: CCOc1cncc(-c2cc(C(=O)N3CCN(c4ccc(C(=O)N(C)CC56CC7CC(CC(C7)C5)C6)cc4)CC3)cc(C(F)(F)F)c2)c1 [B3A040-01, N-(1-Adamantylmethyl)-4-[4-[3-(5-ethoxypyridin-3-yl)-5-(trifluoromethyl)benzoyl]piperazin-1-yl]-N-methylbenzamide]
- ASMS ratio (%) n = 1: 3.5%
- ASMS ratio (%) n = 2: −6.7%

Compound: CCOc1cccc(C#Cc2cc(C(=O)N3CCN(c4ccc(C(=O)N(C)CC56CC7CC(CC(C7)C5)C6)cc4)CC3)cc(C(F)(F)F)c2)c1 [B3A041-01, N-(1-Adamantylmethyl)-4-[4-[3-[2-(3-ethoxyphenyl)ethynyl]-5-(trifluoromethyl)benzoyl]piperazin-1-yl]-N-methylbenzamide]
- ASMS ratio (%) n = 2: 425.9%

Compound: CCOc1cncc(C#Cc2cc(C(=O)N3CCN(c4ccc(C(=O)N(C)CC56CC7CC(CC(C7)C5)C6)cc4)CC3)cc(C(F)(F)F)c2)c1 [B3A042-01, N-(1-Adamantylmethyl)-4-[4-[3-[2-(5-ethoxypyridin-3-yl)ethynyl]-5-(trifluoromethyl)benzoyl]piperazin-1-yl]-N-methylbenzamide]
- ASMS ratio (%) n = 1: −0.2%
- ASMS ratio (%) n = 2: −1.2%

Compound: CCOc1cccc(-c2cnn(-c3cc(C(=O)N4CCN(c5ccc(C(=O)N(C)CC67CC8CC(CC(C8)C6)C7)cc5)CC4)cc(C(F)(F)F)c3)c2)c1 [B3A043-01, N-(1-Adamantylmethyl)-4-[4-[3-[4-(3-ethoxyphenyl)pyrazol-1-yl]-5-(trifluoromethyl)benzoyl]piperazin-1-yl]-N-methylbenzamide]
- ASMS ratio (%) n = 1: 0.5%
- ASMS ratio (%) n = 2: −0.3%

Compound: CCOc1cncc(-c2cnn(-c3cc(C(=O)N4CCN(c5ccc(C(=O)N(C)CC67CC8CC(CC(C8)C6)C7)cc5)CC4)cc(C(F)(F)F)c3)c2)c1 [B3A044-01, N-(1-Adamantylmethyl)-4-[4-[3-[4-(5-ethoxypyridin-3-yl)pyrazol-1-yl]-5-(trifluoromethyl)benzoyl]piperazin-1-yl]-N-methylbenzamide]
- ASMS ratio (%) n = 1: 12.3%
- ASMS ratio (%) n = 2: −12.4%

Compound: CCOc1cccc(-c2ccccc2CN2CCN(c3ccc(C(=O)N(C)CC45CC6CC(CC(C6)C4)C5)cc3)CC2)c1 [B3A045-01, N-(1-Adamantylmethyl)-4-[4-[[2-(3-ethoxyphenyl)phenyl]methyl]piperazin-1-yl]-N-methylbenzamide]
- ASMS ratio (%) n = 1: 3.2%
- ASMS ratio (%) n = 2: 2.5%

Compound: CCOc1cncc(-c2ccccc2CN2CCN(c3ccc(C(=O)N(C)CC45CC6CC(CC(C6)C4)C5)cc3)CC2)c1 [B3A046-01, N-(1-Adamantylmethyl)-4-[4-[[2-(5-ethoxypyridin-3-yl)phenyl]methyl]piperazin-1-yl]-N-methylbenzamide]
- ASMS ratio (%) n = 1: 1.5%
- ASMS ratio (%) n = 2: 3.6%

Compound: CCOc1cccc(-c2ccc(CN3CCN(c4ccc(C(=O)N(C)CC56CC7CC(CC(C7)C5)C6)cc4)CC3)cc2C)c1 [B3A047-01, N-(1-Adamantylmethyl)-4-[4-[[4-(3-ethoxyphenyl)-3-methylphenyl]methyl]piperazin-1-yl]-N-methylbenzamide]
- ASMS ratio (%) n = 1: 1.8%
- ASMS ratio (%) n = 2: −5.9%

Compound: CCOc1cncc(-c2ccc(CN3CCN(c4ccc(C(=O)N(C)CC56CC7CC(CC(C7)C5)C6)cc4)CC3)cc2C)c1 [B3A048-01, N-(1-Adamantylmethyl)-4-[4-[[4-(5-ethoxypyridin-3-yl)-3-methylphenyl]methyl]piperazin-1-yl]-N-methylbenzamide]
- ASMS ratio (%) n = 1: 7.3%
- ASMS ratio (%) n = 2: −8.8%

Compound: CCOc1cncc(-c2ccc(CN3CCN(c4ccc(C(=O)N(C)CC56CC7CC(CC(C7)C5)C6)cc4)CC3)c(CC)c2)c1 [B3A050-01, N-(1-Adamantylmethyl)-4-[4-[[4-(5-ethoxypyridin-3-yl)-2-ethylphenyl]methyl]piperazin-1-yl]-N-methylbenzamide]
- ASMS ratio (%) n = 1: 6.1%
- ASMS ratio (%) n = 2: −4.3%

Compound: CCOc1cccc(-c2ccc(CN3CCN(c4ccc(C(=O)N(C)CC56CC7CC(CC(C7)C5)C6)cc4)CC3)cc2F)c1 [B3A051-01, N-(1-Adamantylmethyl)-4-[4-[[4-(3-ethoxyphenyl)-3-fluorophenyl]methyl]piperazin-1-yl]-N-methylbenzamide]
- ASMS ratio (%) n = 1: 21.3%
- ASMS ratio (%) n = 2: −4.2%

Compound: CCOc1cccc(-c2ccc(CN3CCN(c4ccc(C(=O)N(C)CC56CC7CC(CC(C7)C5)C6)cc4)CC3)c(OC)c2)c1 [B3A053-01, N-(1-Adamantylmethyl)-4-[4-[[4-(3-ethoxyphenyl)-2-methoxyphenyl]methyl]piperazin-1-yl]-N-methylbenzamide]
- ASMS ratio (%) n = 1: 12.5%
- ASMS ratio (%) n = 2: 9.9%

Compound: CCOc1cncc(-c2ccc(CN3CCN(c4ccc(C(=O)N(C)CC56CC7CC(CC(C7)C5)C6)cc4)CC3)c(OC)c2)c1 [B3A054-01, N-(1-Adamantylmethyl)-4-[4-[[4-(5-ethoxypyridin-3-yl)-2-methoxyphenyl]methyl]piperazin-1-yl]-N-methylbenzamide]
- ASMS ratio (%) n = 1: 0.0%
- ASMS ratio (%) n = 2: 0.0%

Compound: CCOc1cccc(-c2cc(CN3CCN(c4ccc(C(=O)N(C)CC56CC7CC(CC(C7)C5)C6)cc4)CC3)cc(OCC)c2)c1 [B3A055-01, N-(1-Adamantylmethyl)-4-[4-[[3-ethoxy-5-(3-ethoxyphenyl)phenyl]methyl]piperazin-1-yl]-N-methylbenzamide]
- ASMS ratio (%) n = 1: 10.8%
- ASMS ratio (%) n = 2: −12.7%

Compound: CCOc1cncc(-c2cc(CN3CCN(c4ccc(C(=O)N(C)CC56CC7CC(CC(C7)C5)C6)cc4)CC3)cc(OCC)c2)c1 [B3A056-01, N-(1-Adamantylmethyl)-4-[4-[[3-ethoxy-5-(5-ethoxypyridin-3-yl)phenyl]methyl]piperazin-1-yl]-N-methylbenzamide]
- ASMS ratio (%) n = 2: 0.0%

Compound: CCOc1cccc(-c2cc(CN3CCN(c4ccc(C(=O)N(C)CC56CC7CC(CC(C7)C5)C6)cc4)CC3)cc(OC(C)C)c2)c1 [B3A057-01, N-(1-Adamantylmethyl)-4-[4-[[3-(3-ethoxyphenyl)-5-propan-2-yloxyphenyl]methyl]piperazin-1-yl]-N-methylbenzamide]
- ASMS ratio (%) n = 1: 6.3%
- ASMS ratio (%) n = 2: 2.5%

Compound: CCOc1cncc(-c2cc(CN3CCN(c4ccc(C(=O)N(C)CC56CC7CC(CC(C7)C5)C6)cc4)CC3)cc(OC(C)C)c2)c1 [B3A058-01, N-(1-Adamantylmethyl)-4-[4-[[3-(5-ethoxypyridin-3-yl)-5-propan-2-yloxyphenyl]methyl]piperazin-1-yl]-N-methylbenzamide]
- ASMS ratio (%) n = 1: 5.9%
- ASMS ratio (%) n = 2: −7.6%

Compound: CCOc1cccc(-c2cc(OC)c(CN3CCN(c4ccc(C(=O)N(C)CC56CC7CC(CC(C7)C5)C6)cc4)CC3)c(OC)c2)c1 [B3A059-01, N-(1-Adamantylmethyl)-4-[4-[[4-(3-ethoxyphenyl)-2,6-dimethoxyphenyl]methyl]piperazin-1-yl]-N-methylbenzamide]
- ASMS ratio (%) n = 1: −1.9%
- ASMS ratio (%) n = 2: −8.0%

Compound: CCOc1cncc(-c2cc(OC)c(CN3CCN(c4ccc(C(=O)N(C)CC56CC7CC(CC(C7)C5)C6)cc4)CC3)c(OC)c2)c1 [B3A060-01, N-(1-Adamantylmethyl)-4-[4-[[4-(5-ethoxypyridin-3-yl)-2,6-dimethoxyphenyl]methyl]piperazin-1-yl]-N-methylbenzamide]
- ASMS ratio (%) n = 1: 0.9%
- ASMS ratio (%) n = 2: 0.0%

Compound: CCOc1cccc(-c2cc(CN3CCN(c4ccc(C(=O)N(C)CC56CC7CC(CC(C7)C5)C6)cc4)CC3)cc(C(F)(F)F)c2)c1 [B3A061-01, N-(1-Adamantylmethyl)-4-[4-[[3-(3-ethoxyphenyl)-5-(trifluoromethyl)phenyl]methyl]piperazin-1-yl]-N-methylbenzamide]
- ASMS ratio (%) n = 2: 421.3%
